# Laboratory results: US10435400B2, “2,4-disubstituted phenylene-1,5-diamine derivatives and applications thereof, and pharmaceutical compositions and pharmaceutically acceptable compositions prepared therefrom” (SHANGHAI HAIYAN PHARMACEUTICAL TECHNOLOGY CO., LTD., priority 2014, dated 2019)
# Where two headings read alike, the source gives them in different places.
# What was measured:
# NIH3T3 cells = test: Cytotoxicity by MTT method, NIH3T3 cells; type: cell-based; conditions: read-out: NIH3T3 cells MTT assay (IC50/nM);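 also: cells grown in 96-well plates with compound for 72 h, then given MTT for a further 4 h at 37 °C under 5% CO2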
# EGFR WT kinase = EGFR WT kinase (Homo sapiens (Human), UniProt P00533); test: Wild type EGFR kinase inhibition test (z-lyte); type: biochemical; conditions: 10 μM ATP
# EGFR WT kinase, sequence (P00533 25-1210): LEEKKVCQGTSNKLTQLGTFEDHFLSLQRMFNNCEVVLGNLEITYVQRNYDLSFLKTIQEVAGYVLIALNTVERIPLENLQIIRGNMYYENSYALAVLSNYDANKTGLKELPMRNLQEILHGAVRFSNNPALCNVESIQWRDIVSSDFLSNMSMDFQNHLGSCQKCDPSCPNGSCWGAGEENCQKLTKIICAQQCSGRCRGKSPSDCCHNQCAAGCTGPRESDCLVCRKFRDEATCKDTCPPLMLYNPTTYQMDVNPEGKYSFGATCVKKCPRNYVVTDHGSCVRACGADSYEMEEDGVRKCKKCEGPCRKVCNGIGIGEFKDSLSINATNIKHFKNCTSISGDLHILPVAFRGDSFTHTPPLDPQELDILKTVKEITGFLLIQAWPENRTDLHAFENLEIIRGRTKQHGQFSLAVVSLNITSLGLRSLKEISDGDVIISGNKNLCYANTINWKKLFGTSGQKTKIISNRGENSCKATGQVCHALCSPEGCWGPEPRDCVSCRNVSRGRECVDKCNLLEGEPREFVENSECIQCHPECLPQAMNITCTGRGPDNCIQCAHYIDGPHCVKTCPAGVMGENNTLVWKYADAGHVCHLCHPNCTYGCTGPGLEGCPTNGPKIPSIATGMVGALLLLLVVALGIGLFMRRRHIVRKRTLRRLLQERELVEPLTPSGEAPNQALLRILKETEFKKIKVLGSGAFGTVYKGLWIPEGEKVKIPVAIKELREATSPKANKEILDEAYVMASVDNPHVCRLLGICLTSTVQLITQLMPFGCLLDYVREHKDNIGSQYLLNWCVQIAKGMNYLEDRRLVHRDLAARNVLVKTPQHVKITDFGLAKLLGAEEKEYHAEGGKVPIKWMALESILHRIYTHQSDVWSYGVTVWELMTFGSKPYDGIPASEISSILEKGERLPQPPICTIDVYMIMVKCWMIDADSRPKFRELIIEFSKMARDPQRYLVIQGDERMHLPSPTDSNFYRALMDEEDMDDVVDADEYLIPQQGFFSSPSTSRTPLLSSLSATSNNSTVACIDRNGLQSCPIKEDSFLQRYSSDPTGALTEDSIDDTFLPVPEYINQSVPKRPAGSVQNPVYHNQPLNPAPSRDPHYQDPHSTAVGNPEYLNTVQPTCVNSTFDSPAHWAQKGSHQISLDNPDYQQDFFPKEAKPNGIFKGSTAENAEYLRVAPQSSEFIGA
# H1975 cells [1] = test: Cytostatic activity by MTT method, H1975 cells; type: cell-based; conditions: read-out: H1975 cells (IC50/nM)
# A431 cells = test: ELISA cell activity, EGF-stimulated A431 cells; type: cell-based; conditions: ELISA, compound 1 h then EGF 45 minutes, read-out: A431 cells (IC50/nM);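 also: Serum-starved A431 cells pretreated with compound for 1 h, then stimulated with EGF for 45 min, lysates read by ELISA (OD450 minus OD570), EGF-only wells as control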
# H1975 cells [2] = test: ELISA screening EGFR T790M inhibitor for cell activity, H1975 cells; type: cell-based; conditions: ELISA; for IC50: compound 1 h, read-out: H1975 cells (IC50/nM); for Selective inhibitory activities of target on cellular level [IC50 (A431 cells)/IC50 (H1975 cells)]: ratio of IC50 values
# [3] = Mus musculus, NIH3T3, cytotoxicity, MTT, 72 h
IC50 (EGFR WT kinase) [nM],Structure (SMILES),"IC50 (NIH3T3 cells; cytotoxicity, MTT, 72 h) [nM]",other results
–,C=CC(=O)Nc1cc(Nc2nccc(-c3cnc4[nH]ccc4c3)n2)c(OC)cc1N1CC(N(C)C)C1 [Compound Z-33],> 10000,–
25,C=CC(=O)Nc1cc(Nc2ncc(F)c(-c3cnc4c(c3)c(Cl)cn4C)n2)c(OC)cc1N1CCC(N(C)C)CC1 [Compound Z-122],–,–
–,"C=CC(=O)Nc1cc(Nc2ncc(Cl)c(-c3cnn(C(F)F)c3)n2)c(OC)cc1N1CCC(N(C)C)CC1 [Compound Z-101, N-(5-(5-chloro-4-(1-(difluoromethyl)-1H-pyrazol-4-yl)pyrimidin-2-ylamino)-2-(4-(dimethylamino)piperidin-1-yl)-4-methoxyphenyl)acrylamide]",–,"IC50 (NIH3T3 cells; [3]): 3430 nM; IC50 (H1975 cells [1]; Homo sapiens, NCI-H1975, MTT, 72 h): 43 nM"
45,"C=CC(=O)Nc1cc(Nc2nccc(-c3cnc4c(cnn4C)c3)n2)c(OC)cc1N1CCC(N(C)C)CC1 [Compound Z-4, N-(2-(4-(dimethylamino)piperidin-1-yl)-4-methoxy-5-(4-(1-methyl-1H-pyrazolo[3,4-b]pyridin-5-yl)pyrimidin-2-ylamino)phenyl)acrylamide]",–,–
233,C=CC(=O)Nc1cc(Nc2ncc(Cl)c(-c3cnc4c(cnn4C)c3)n2)c(OC)cc1N1CCC(N(C)C)CC1 [Compound Z-40],–,IC50 (A431 cells): 2140 nM; IC50 (H1975 cells [2]): 70 nM; Selective inhibitory activities of target on cellular level [IC50 (A431 cells)/IC50 (H1975 cells)] (H1975 cells [2]): 30.5
11,C=CC(=O)Nc1cc(Nc2ncc(Cl)c(-c3ccc4c(ccn4C)c3)n2)c(OC)cc1N(C)CCN(C)C [Compound Z-88],–,IC50 (A431 cells): 449 nM; IC50 (H1975 cells [2]): 18 nM; Selective inhibitory activities of target on cellular level [IC50 (A431 cells)/IC50 (H1975 cells)] (H1975 cells [2]): 24.9
105,"C=CC(=O)Nc1cc(Nc2nccc(-c3cnc4c(cnn4C)c3)n2)c(OC)cc1N1CCN(C)CC1 [Compound Z-5, N-(4-methoxy-5-(4-(1-methyl-1H-pyrazolo[3,4-b]pyridin-5-yl)pyrimidin-2-ylamino)-2-(4-methylpiperazin-1-yl)phenyl)acrylamide]",–,–
9,"C=CC(=O)Nc1cc(Nc2ncc(OC)c(-c3cnc4c(ccn4C)c3)n2)c(OC)cc1N(C)CCN(C)C [Compound Z-21, N-(2-((2-(dimethylamino)ethyl)(methyl)amino)-4-methoxy-5-((5-methoxy-4-(1-methyl-1H-pyrrolo[2,3-b]pyridin-5-yl)pyrimidin-2-yl)amino)phenyl)acrylamide]",–,"IC50 (A431 cells; Homo sapiens, A-431): 113 nM; Selective inhibitory activities of target on cellular level [IC50 (A431 cells)/IC50 (H1975 cells)] (H1975 cells [2]): 10.3; IC50 (H1975 cells [2]; Homo sapiens, NCI-H1975): 11 nM"
8,C=CC(=O)Nc1cc(Nc2nccc(-c3ccc4c(ccn4C)c3)n2)c(OC)cc1N(C)CCN(C)C [Compound Z-87],–,IC50 (A431 cells): 210 nM; IC50 (H1975 cells [2]): 31 nM; Selective inhibitory activities of target on cellular level [IC50 (A431 cells)/IC50 (H1975 cells)] (H1975 cells [2]): 6.8
341,"C=CC(=O)Nc1cc(Nc2ncc(Cl)c(-c3cnn(C)c3C)n2)c(OC)cc1N1CCC(N(C)C)CC1 [Compound Z-97, N-(5-(5-chloro-4-(1,5-dimethyl-1H-pyrazol-4-yl)pyrimidin-2-ylamino)-2-(4-(dimethylamino)piperidin-1-yl)-4-methoxyphenyl)acrylamide]",–,"IC50 (A431 cells; Homo sapiens, A-431): 7500 nM; Selective inhibitory activities of target on cellular level [IC50 (A431 cells)/IC50 (H1975 cells)] (H1975 cells [2]): 72.1; IC50 (H1975 cells [2]; Homo sapiens, NCI-H1975): 104 nM"
14,C=CC(=O)Nc1cc(Nc2ncc(Cl)c(-c3cnc4c(c3)c(Cl)cn4C)n2)c(OC)cc1N(C)CCN(C)C [Compound Z-121],8530,–
89,C=CC(=O)Nc1cc(Nc2ncc(F)c(-c3cnc4c(cnn4C)c3)n2)c(OC)cc1N1CCC(N(C)C)CC1 [Compound Z-37],–,IC50 (A431 cells): 481 nM; IC50 (H1975 cells [2]): 57 nM; Selective inhibitory activities of target on cellular level [IC50 (A431 cells)/IC50 (H1975 cells)] (H1975 cells [2]): 8.4
–,"C=CC(=O)Nc1cc(Nc2nccc(-c3cnn(C)c3)n2)c(OC)cc1N1CCC(N(C)C)CC1 [Compound Z-17, N-(2-(4-(dimethylamino)piperidin-1-yl)-4-methoxy-5-((4-(1-methyl-1H-pyrazol-4-yl)pyrimidin-2-yl)amino)phenyl)acrylamide]",–,"IC50 (A431 cells; Homo sapiens, A-431): 3080 nM; IC50 (H1975 cells [2]; Homo sapiens, NCI-H1975): 77 nM"
61,C=CC(=O)Nc1cc(Nc2nccc(-c3cnc4c(ccn4C)c3)n2)c(OC)cc1N1CCC(N(C)C)CC1 [Compound Z-25],6910,–
4,C=CC(=O)Nc1cc(Nc2ncc(C(=O)OC)c(-c3cnc4c(ccn4C)c3)n2)c(OC)cc1N(C)CCN(C)C [Compound Z-32],> 10000,–
–,"CN(C)C/C=C/C(=O)Nc1cc2c(Nc3ccc(F)c(Cl)c3)ncnc2cc1O[C@H]1CCOC1 [BIBW2992, Afatinib, reference compound]",–,"IC50 (NIH3T3 cells; Mus musculus, NIH3T3, 72 h): 2750 nM; IC50 (H1975 cells [1]; Homo sapiens, NCI-H1975, 72 h): 88 nM"
116,C=CC(=O)Nc1cc(Nc2ncc(Cl)c(-c3cnc4c(ccn4C)c3)n2)c(OC)cc1NCCCN(C)C [Compound Z-114],8280,–
–,C=CC(=O)Nc1cc(Nc2ncc(Cl)c(-c3cnc4c(ccn4C)c3)n2)c(OC)cc1N(C)CCN(CC)CC [Compound Z-110],6840,–
6,C=CC(=O)Nc1cc(Nc2ncc(F)c(-c3cnc4c(ccn4C)c3)n2)c(OC)cc1OCCN(C)C [Compound Z-118],3320,–
114,C=CC(=O)Nc1cc(Nc2nccc(-c3cnc4c(ccn4C)c3)n2)c(OC)cc1N1CCN(C)CC1 [Compound Z-26],> 10000,–
–,C=CC(=O)Nc1cc(Nc2nccc(-c3cnc4c(c3)c(Cl)cn4C)n2)c(OC)cc1N(C)CCN(C)C [Compound Z-54],–,"IC50 (H1975 cells [2]): 4 nM; IC50 (H1975 cells [1]; MTT, 72 h): 3 nM"
–,"C=CC(=O)Nc1cc(Nc2ncc(Cl)c(-c3cnc4c(ccn4C)c3)n2)c(OC)cc1N1CCN(C)CC1 [Compound Z-3, N-(5-(5-chloro-4-(1-methyl-1H-pyrrolo[2,3-b]pyridin-5-yl)pyrimidin-2-amino)-4-methoxy-2-(4-methylpiperazin-1-yl)phenyl)acrylamide]",–,IC50 (NIH3T3 cells; [3]): 8160 nM
–,C=CC(=O)Nc1cc(Nc2ncc(Cl)c(-c3cnc4c(ccn4C)c3)n2)c(OC)cc1N(C)CCCN(C)C [Compound Z-111],4010,–
–,"C=CC(=O)Nc1cc(Nc2ncc(F)c(-c3cnn(C)c3)n2)c(OC)cc1N(C)CCN(C)C [Compound Z-93, N-(2-((2-(dimethylamino)ethyl)(methyl)amino)-5-(5-fluoro-4-(1-methyl-1H-pyrazol-4-yl)pyrimidin-2-ylamino)-4-methoxyphenyl)acrylamide]",–,IC50 (NIH3T3 cells; [3]): > 10000 nM
35,C=CC(=O)Nc1cc(Nc2ncc(OC)c(-c3cnc4c(cnn4C)c3)n2)c(OC)cc1N1CCC(N(C)C)CC1 [Compound Z-38],> 10000,–
197,"C=CC(=O)Nc1cc(Nc2nccc(-c3cnn(C)c3)n2)c(OC)cc1N(C)CCN(C)C [Compound Z-18, N-(2-((2-(dimethylamino)ethyl)(methyl)amino)-4-methoxy-5-((4-(1-methyl-1H-pyrazol-4-yl)pyrimidin-2-yl)amino)phenyl)acrylamide]",–,–
118,C=CC(=O)Nc1cc(Nc2ncc(F)c(-c3cnc4c(ccn4C)c3)n2)c(OC)cc1N1CCC(N(C)C)CC1 [Compound Z-29],–,–
37,C=CC(=O)Nc1cc(Nc2ncc(Cl)c(-c3cnc4c(ccn4C)c3)n2)c(OC)cc1N(C)CCNC [Compound Z-116],> 10000,–
